Source: ChEMBL document CHEMBL1129045, “Potential antitumor agents. 24. Synthesis and pharmacological behavior of imidazo[2,1-b]thiazole guanylhydrazones bearing at least one chlorine” (J Med Chem, 1996)
Values after ≈ are worked out from the molar mass of the structure shown.

Tests used:
[1] = Compound was tested for concentration to obtain Emax (microg)
[2] = Compound was tested for initial contractile force 0.4+/-0.1 g (% deltabase line value)
HeLa = experiment: Compound was tested in vitro for cytotoxicity against HeLa cells.; type: functional, cell-based, Homo sapiens
Mus musculus [3] = experiment: Compound was tested in vivo antitumor activity against Ehrlich ascites in mice at 12.5 mg/kg ip; type: functional; conditions: route intraperitoneal
Mus musculus [4] = experiment: Compound was tested in vivo antitumor activity against Ehrlich ascites in mice at 25 mg/kg ip; type: functional; conditions: route intraperitoneal
Mus musculus [5] = experiment: Compound was tested in vivo antitumor activity against Ehrlich ascites in mice at 50 mg/kg ip; type: functional; conditions: route intraperitoneal
Mus musculus [6] = experiment: Compound was tested in vivo antitumor activity against Ehrlich ascites in mice at 100 mg/kg ip; type: functional; conditions: route intraperitoneal
Cavia porcellus = species: Cavia porcellus; experiment: Positive inotropic activity in isolated guinea pig atria, Concentration producing 50% of the maximal effect; type: functional
Mus musculus [7] = experiment: Compound was tested in vivo antitumor activity against Ehrlich ascites in mice at 6.25 mg/kg ip; type: functional; conditions: route intraperitoneal
Mus musculus [8] = experiment: Compound was tested in vivo antitumor activity against Ehrlich ascites in mice at 1 mg/kg ip; type: functional; conditions: route intraperitoneal

COc1cc([S+](C)[O-])ccc1-c1nc2ncccc2[nH]1 (configuration not stated) [SULMAZOLE]
Emax [1]: 350 µg
Delta [2]: 163%

Cc1sc2nc(-c3ccc(Cl)cc3)c(/C=N/N=C(N)N)n2c1C
Delta [2]: 118%
IC50 (HeLa): 2 µg/mL (≈ 5.77 µM)
T/C (Mus musculus [3]): 140%

Cc1csc2nc(-c3ccc(Cl)cc3)c(/C=N/N=C(N)N)n12
Delta [2]: 115%
IC50 (HeLa): 2 µg/mL (≈ 6.01 µM)
T/C (Mus musculus [4]): 133%

N=C(N)N/N=C/c1c(-c2ccc(Cl)cc2Cl)nc2sccn12
Delta [2]: 100%
IC50 (HeLa): 2.5 µg/mL (≈ 7.08 µM)
T/C (Mus musculus [4]): 146%

Cc1sc2nc(Cl)c(/C=N/N=C(N)N)n2c1C
Delta [2]: 137%
IC50 (HeLa): > 10 µg/mL
T/C (Mus musculus [5]): 100%

N=C(N)N/N=C/c1c(-c2ccc(Cl)cc2)nc2sc(Cl)cn12
Delta [2]: 100%
IC50 (HeLa): 0.6 µg/mL (≈ 1.7 µM)
T/C (Mus musculus [3]): 166%

N=C(N)N/N=C/c1c(-c2ccc(Cl)c(Cl)c2Cl)nc2n1CCS2
Delta [2]: 111%
IC50 (HeLa): 2.5 µg/mL (≈ 6.42 µM)
T/C (Mus musculus [5]): 166%

O=c1[nH]cc(F)c(=O)[nH]1 [FLUOROURACIL]
IC50 (HeLa): 6 µg/mL (≈ 46.1 µM)
T/C (Mus musculus [6]): 180%

Cc1cn2c(/C=N/N=C(N)N)c(Cl)nc2s1
Delta [2]: 146%
EC50 (Cavia porcellus): 0.016 mg
IC50 (HeLa): > 10 µg/mL
T/C (Mus musculus [5]): 106%

Cc1cn2c(/C=N/N=C(N)N)c(-c3ccc(Cl)cc3)nc2s1
Delta [2]: 106%
IC50 (HeLa): 1.5 µg/mL (≈ 4.51 µM)
T/C (Mus musculus [7]): 166%

COc1cccc2c1C(=O)c1c(O)c3c(c(O)c1C2=O)C[C@@](O)(C(=O)CO)C[C@@H]3O[C@H]1C[C@H](N)[C@H](O)[C@H](C)O1 [DOXORUBICIN]
IC50 (HeLa): 0.005 µg/mL (≈ 0.0092 µM)
T/C (Mus musculus [8]): 200%

N=C(N)N/N=C/c1c(Cl)nc2sc(Cl)cn12
Delta [2]: 135%
IC50 (HeLa): > 10 µg/mL
T/C (Mus musculus [6]): 120%

N=C(N)N/N=C/c1c(-c2ccc(Cl)c(Cl)c2Cl)nc2sccn12
IC50 (HeLa): 2 µg/mL (≈ 5.16 µM)
T/C (Mus musculus [3]): 180%

Cc1csc2nc(Cl)c(/C=N/N=C(N)N)n12
Delta [2]: 134%
IC50 (HeLa): > 10 µg/mL
T/C (Mus musculus [5]): 106%

N=C(N)N/N=C/c1c(-c2ccc(Cl)cc2Cl)nc2n1CCS2
Delta [2]: 119%
IC50 (HeLa): 5 µg/mL (≈ 14.1 µM)
T/C (Mus musculus [5]): 200%
